Key:
[1] = system: human-derived tracheal/bronchial epithelial cells (EpiAirway Tissue Model); test: TER recovery / TER time course; assay type: cell-based; conditions: for TER Recovery (ohms) 16 Hours / TER Recovery (ohms) 0 Hour: lipid 1000 μM in Buffer I; for TER Recovery (ohms) 16 Hours: 16 hours post-treatment; for TER Recovery (ohms) 0 Hour: zero hour post-treatment
Description: TER recovery was calculated as described in the above paragraph.
Reversibility is a critical factor in selecting epithelial cell permeabiling enhancers since the barrier function of the epithelial cells serves as the first line of defense against pathogens and the entrance of toxins into the body. The permeation enhancing lipids C16 PAF; C18 PAF; C16 Enantiomeric PAF; POVPC; C16-04: 1 PC and PGPC were incubated with a monolayer of human-derived tracheal/bronchial epithelial cells (EpiAirway™ Model System) and TER […] The lipid glucosyl sphingosine was also tested. Each permeation enhancing lipid (except PGPC) was applied at a concentration of 1000 μM for 15, 30 and 60 minutes. The permeation enhancing lipid PGPC and the lipid glucosyl sphingosine were applied at a concentration of 500 μM for 1, 3, 5, 30 and 60 minutes. TER measurements were taken immediately after each application to determine how quickly each lipid could reduce TER.
[…] […] PBS served as a negative control and Triton-X100™ served as a positive control.
To asses how quickly the cells recovered after application and removal of the permeation enhancing lipid PGPC and the lipid glucosyl sphingosine, TER measurements were taken at 1, 3, 5, 7, and 9 hours post-treamtnet for each of the prior mentioned timed treatments (i.e., 1, 3, 5, 15, 30 and 60 minutes). TER recovery measures the reversibility of the lipid mediated effect on an epithelia. […] Hyptonic PBS served as a negative control for TER reduction and TER recovery.

[2] = system: human-derived tracheal/bronchial epithelial cells (EpiAirway Tissue Model); test: Insulin permeation across epithelial cell monolayer; assay type: cell-based; conditions: for permeation of insulin (in words): 1000 μM in the presence of Buffer I and Buffer II
Description: Also, the efficacy of a permeation enhancing lipid to enhance the permeation of insulin across and epithelial cell layer was measured. Refer to Example 2 of the instant application for general protocol details. […] Based on the FD3 permeation data in Table 8, the ability of the C16 PAF and C16 Enantiomeric PAF in the presence of Buffers I and II to enhance permeation of the biological agent insulin was assayed. Each lipid was tested at a 1000 μM concentration.

[3] = Cell viability (MTT assay); assay type: cell-based, human; conditions: human; PN159 25 μM / PYY 13.67 mg/mL (High)
Description: (§1) Cell viability will be assessed using the MTT assay (MTT-100, MatTek kit). This kit measures the uptake and transformation of tetrazolium salt to formazan dye. Thawed and diluted MTT concentrate is prepared 1 hour prior to the end of the dosing period with the lipid by mixing 2 mL of MTT concentrate with 8 mL of MTT diluent. Each cell culture insert is washed twice with PBS containing Ca^+2 and Mg^+2 and then transferred to a new 96-well transport plate containing 100 μL of the mixed MTT solution per well. This 96-well transport plate is then incubated for three hours at 37° C. and 5% CO2. After the three hour incubation, the MTT solution is removed and the cultures are transferred to a second 96-well feeder tray containing 250 μL MTT extractant solution per well. An additional 150 μL of MTT extractan solution was added to the surface of each culture well and the samples sat at room temperature in the dark for a minimum of two hours and maximum of 24 hours. The insert membrane was then pierced with a pipet tip and the solutions in the upper and lower wells were allowed to mix. Two hundred microliters of the mixed extracted solution along with extracted blanks (negative control) was transferred to a 96-well plate for measurement with a microplate reader. The optical density (OD) of the samples was measured at 570 nm with the background subtraction at 650 nm on a plate reader. Cell viability was expressed as a percentage and calculated by dividing the OD readings for treated inserts by the OD readings for the PBS treated inserts and multiplying by 100. For the purposes of this assay, it was assumed that PBS had no effect on cell viability and therefore represented 100% cell viability.

[4] = system: human-derived tracheal/bronchial epithelial cells (EpiAirway Tissue Model); test: Peptide YY (PYY) permeation across epithelial cell monolayer; assay type: cell-based
Description: Permeation is expressed as percent permeation and was calculated as follows: [formula] [formula] Terms
In the instant example, the ability of permeation enhancing lipids to enhance the permeation of the biological agent, peptide YY (PYY; molecular weight of 3.7 kDa) across the epithelial cell monolayer model system (EpiAirway™) was measured. Also, the efficacy of a permeation enhancing lipid to enhance the permeation of insulin across and epithelial cell layer was measured. Refer to Example 2 of the instant application for general protocol details.

[5] = system: human-derived tracheal/bronchial epithelial cells (EpiAirway Tissue Model); test: Cell viability (MTT assay); assay type: cell-based; conditions: for effect on cell viability (MTT assay): compared with control Special Sauce, data not shown (Example 3); for MTT levels (cell viability): compared with PBS negative control (Example 5)
Description: as §1

[6] = after 1, 3, 5, 15 and 30 minute treatments, lipids 500 μM, PN159 25 μM
[7] = after 60 minute treatment, lipids 500 μM, PN159 25 μM
[8] = lipid 500 μM / PYY 13.67 mg/mL (High)

SMILES: CCCCCCCCCCCCCCCCOC[C@@H](COP(=O)([O-])OCC[N+](C)(C)C)OC(C)=O [C16 Enantiomeric PAF, 3-O-Hexadecyl-2-Acetoyl-sn-Glycero-1-Phosphocholine]
- TER Recovery (ohms) 16 Hours [1]: 462 ohms
- TER Recovery (ohms) 0 Hour [1]: 9 ohms
- permeation of insulin (in words) [2]: enhance the permeation of insulin across an epithelial cell monolayer
- % Insulin Permeation ([2]; lipid 1000 μM in Buffer I): 3%
- % Insulin Permeation ([2]; lipid 1000 μM in Buffer II): 8%

SMILES: CC(C)C[C@H](NC(=O)[C@H](C)NC(=O)[C@H](CCCCN)NC(=O)[C@H](CC(C)C)NC(=O)[C@H](C)NC(=O)[C@H](CC(C)C)NC(=O)[C@H](CCCCN)NC(=O)[C@H](CC(C)C)NC(=O)[C@H](C)NC(=O)[C@H](CC(C)C)NC(=O)[C@@H](N)CCCCN)C(=O)N[C@@H](CCCCN)C(=O)N[C@@H](C)C(=O)N[C@@H](C)C(=O)N[C@@H](CC(C)C)C(=O)N[C@@H](CCCCN)C(=O)N[C@@H](CC(C)C)C(=O)N[C@@H](C)C(N)=O [PN159, reference compound]
- time to full TER recovery (PBS control levels) [1, 6]: 2 h
- time to full TER recovery (PBS control levels) [1, 7]: 9 h
- time to TER reduction ([1]; lipids 500 μM, PN159 25 μM): 10 min
- viability at 25 µM [3]: 89%
- % PYY Permeation ([4]; PN159 25 μM / PYY 13.67 mg/mL (High)): 3.71%

SMILES: C=CCC(=O)O[C@H](COCCCCCCCCCCCCCCCC)COP(=O)([O-])OCC[N+](C)(C)C [C16-04:1 PC]
- TER Recovery (ohms) 16 Hours [1]: 520 ohms
- TER Recovery (ohms) 0 Hour [1]: 10 ohms
- effect on cell viability (MTT assay) [5]: did not reduce cell viability below that of Special Sauce

SMILES: CCCCCCCCCCCCCCCCOC[C@H](COP(=O)([O-])OCC[N+](C)(C)C)OC(C)=O [C16-02:0 PC(C16 PAF), 1-O-Hexadecyl-2-Acetoyl-sn-Glycero-3-Phosphocholine]
- TER Recovery (ohms) 16 Hours [1]: 650 ohms
- TER Recovery (ohms) 0 Hour [1]: 9 ohms
- effect on cell viability (MTT assay) [5]: did not reduce cell viability below that of Special Sauce
- permeation of insulin (in words) [2]: enhance the permeation of insulin across an epithelial cell monolayer
- permeation of insulin ([2]; lipid 1000 μM (Example 6)): more than 3%
- % Insulin Permeation ([2]; lipid 1000 μM in Buffer I): 4%
- % Insulin Permeation ([2]; lipid 1000 μM in Buffer II): 8%
- % Insulin Permeation ([2]; lipid 1000 μM in PBS): 3%

SMILES: CCCCCCCCCCCCCCCC(=O)OC[C@H](COP(=O)([O-])OCC[N+](C)(C)C)OC(=O)CCCC(=O)O [PGPC, 1-Palmitoyl-2-Glutaroyl-sn-Glycero-3-Phosphocholine]
- time to full TER recovery (PBS control levels) [1, 6]: fully recovered within one hour
- time to full TER recovery (PBS control levels) [1, 7]: did not reach PBS TER control levels until three hours post-treatment
- MTT levels (cell viability) [5]: MTT levels comparable to that of the PBS negative control
- % Cell Viability [5, 8]: 113%
- % PYY Permeation [4, 8]: 0.13%

SMILES: CCCCCCCCCCCCCCCCCCOC[C@H](COP(=O)([O-])OCC[N+](C)(C)C)OC(C)=O [C18-02:0 PC(C18 PAF), 1-O-Octadecyl-2-Acetoyl-sn-Glycero-3-Phosphocholine]
- TER Recovery (ohms) 16 Hours [1]: 497 ohms
- TER Recovery (ohms) 0 Hour [1]: 6 ohms
- effect on cell viability (MTT assay) [5]: did not reduce cell viability below that of Special Sauce

SMILES: CCCCCCCCCCCCCCCC(=O)OC[C@H](COP(=O)([O-])OCC[N+](C)(C)C)OC(=O)CCCC=O [POVPC, 1-Palmitoyl-2-(5′-oxo-Valeroyl)-sn-Glycero-3-Phosphocholine]
- TER Recovery (ohms) 16 Hours [1]: 508 ohms
- TER Recovery (ohms) 0 Hour [1]: 71 ohms
- MTT levels (cell viability) [5]: MTT levels comparable to that of the PBS negative control
- effect on cell viability (MTT assay) [5]: did not reduce cell viability below that of the control Special Sauce
